The test system of data set [1] is VCaP cells. Nature of the data set: Cellular growth inhibition assay for VCaP cells (CellTiter-Glo 2.0, 72 hours). It counts as cell-based, human.
The target of data set [2] is T1, androgen receptor (AR) and bromodomain-containing protein 4 (BRD4) protein (Homo sapiens, UniProt O60885+P10275).
T1 construct: endogenous in cells; host or cells: VCaP cells
Nature of the data set: Ternary complex formation in VCaP cells (AR capture antibody ELISA). It counts as cell-based. Particulars: FIG. 1. As for the experimental part:
Exemplary compounds were tested for ability to form a ternary complex containing a test compound, androgen receptor (AR), and bromodomain-containing protein 4 (BRD4) protein.
VCaP cells were cultured in ATCC DMEM medium supplemented with 10% ATCC fetal bovine serum, and 1% pen-strep (culture medium). 5000 cells were seeded in 100 μL of culture medium, per well in a clear 96-well poly-D-lysine coated plate. Plates were equilibrated to room temperature for 30 minutes. After equilibration, plates were incubated at 37° C. with 5% CO2 in a humidified tissue culture incubator. Black, opaque 96-well MaxiSorp plates were coated with 50 μL of a solution of androgen receptor antibody diluted in phosphate buffered saline (PBS). The coated plates were then quick-spun for 30 seconds before being sealed and placed in a fridge at 4° C. overnight. Test compounds were titrated in 100% DMSO the day before the experiment was performed and were left sealed in the dessicator overnight. QuantaRed™ Enhanced Chemifluorescent HRP Substrate Kit was taken out from 4° C. to warm up to room temperature. Plates coated with androgen receptor antibody were washed three times with 200 μL 1× Tris -Buffered Saline plus 0.1% Tween20 (TBST), then blocked with 200 μL 3% bovine serum albumin in TBST for approximately […] on a room temperature plate shaker at 500 rpm for 1 hour. […]

Data set [3] has as its system VCaP cell tumors. Put plainly: Castrate VCaP tumor xenograft study, tumor growth. It counts as in vivo. Particulars: castrated CB17.SCID mice bearing VCaP tumors, oral gavage; same mg/kg dose and dosing frequency for Compound II-5 and Compound A, FIG. 8. On the procedure:
Compound II-5 was evaluated for in vivo performance when administered to CB17.SCID mice bearing VCaP cell tumors.
5M VCaP cells were subcutaneously implanted into CB17.SCID mice in 50% Matrigel (Corning). Mice were castrated under anesthesia once tumor volumes reached 100 mm^3. Tumors were then allowed to reach an average of approximately 150 mm^3 before randomization into efficacy arms. Tumors were measured twice weekly for Tumor Growth Inhibition (TGI) calculation. For PK/PD analysis, tumors were allowed to reach an average of 400 mm^3, before dosing the mice with test compound by oral gavage (n=5) for seven days. Mice were sacrificed 24 hours following the final dose, and tumors were harvested for downstream analysis. Plasma samples were collected from all dosed mice 2 hours following the final dose to determine test compound exposure by LC-MS/MS. Test compounds used in the experiment were (i) Compound II-5 and (ii) a commercially available nonsteroidal antiandrogen medication that has been approved by the United States Food and Drug Administration for treatment of prostate cancer (hereinafter “Compound A”).

Data set [4] in a line: Stability analysis of Crystal Form A and Crystal Form B in solvent suspensions (XRPD). It counts as physicochemical. On the procedure:
The obtained suspensions were stirred at 25° C. and 50° C. for 1 week, respectively. Solid parts (wet cakes) were isolated by centrifugation filtration at […] temperature and investigated by XRPD.

Structures are written as SMILES.

T1 sequence (P10275 whole entry, other chains not shown): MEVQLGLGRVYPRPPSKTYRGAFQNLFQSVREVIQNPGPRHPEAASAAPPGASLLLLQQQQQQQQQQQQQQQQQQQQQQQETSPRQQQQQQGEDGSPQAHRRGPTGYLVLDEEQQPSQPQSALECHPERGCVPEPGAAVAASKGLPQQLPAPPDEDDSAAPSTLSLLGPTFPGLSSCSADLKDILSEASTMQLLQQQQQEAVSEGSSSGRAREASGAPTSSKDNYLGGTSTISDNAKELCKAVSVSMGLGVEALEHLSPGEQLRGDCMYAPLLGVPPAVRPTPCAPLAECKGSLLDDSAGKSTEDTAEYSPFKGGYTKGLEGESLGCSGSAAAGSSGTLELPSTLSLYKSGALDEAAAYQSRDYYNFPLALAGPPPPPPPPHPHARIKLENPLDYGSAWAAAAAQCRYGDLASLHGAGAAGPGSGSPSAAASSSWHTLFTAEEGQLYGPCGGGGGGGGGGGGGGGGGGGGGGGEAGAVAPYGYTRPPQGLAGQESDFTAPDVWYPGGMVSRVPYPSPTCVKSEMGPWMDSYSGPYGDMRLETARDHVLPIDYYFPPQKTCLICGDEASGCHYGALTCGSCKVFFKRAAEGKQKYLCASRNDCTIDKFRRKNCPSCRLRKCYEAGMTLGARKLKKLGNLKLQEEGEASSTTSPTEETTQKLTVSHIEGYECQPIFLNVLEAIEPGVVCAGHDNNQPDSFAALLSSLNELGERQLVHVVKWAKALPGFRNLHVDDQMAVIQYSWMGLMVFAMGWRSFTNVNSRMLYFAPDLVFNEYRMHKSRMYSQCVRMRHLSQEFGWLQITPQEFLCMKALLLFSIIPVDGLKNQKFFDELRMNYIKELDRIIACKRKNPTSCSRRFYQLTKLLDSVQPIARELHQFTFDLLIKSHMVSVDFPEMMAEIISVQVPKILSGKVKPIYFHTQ

Consider `COc1cc(O[C@H]2C(C)(C)[C@H](NC(=O)c3cnc(N4CCC5(CC4)CC(Oc4ccc(C6=N[C@@H](Cc7ncco7)c7nnc(C)n7-c7sc(C)c(C)c76)cc4)C5)nc3)C2(C)C)ccc1C#N` [II-5, N-[(1r,3r)-3-(4-cyano-3-methoxy-phenoxy)-2,2,4,4-tetramethyl-cyclobutyl]-2-[2-[4-[(9S)-4,5,13-trimethyl-9-(oxazol-2-ylmethyl)-3-thia-1,8,11,12-tetrazatricyclo[8.3.0.0^2,6]trideca-2 (6),4,7,10,12-pentaen-7-yl]phenoxy]-7-azaspiro[3.5]nonan-7-yl]pyrimidine-5-carboxamide], for which, in data set [1] (GI50 of the top compound in the pair divided by GI50 of the lower compound), the “Ratio of GI50's” value turned out to be 1. The GI50 in data set [1] (Homo sapiens, VCaP, 72 h, CellTiter-Glo 2.0) was under 500 nM. In addition, the “ternary complex formation between test compound, androgen receptor, and BRD4” value in data set [2] is on record as “detected”. In addition, the “tumor growth inhibition (tumor volume)” value in data set [3] is reported as “more effective in reducing tumor growth in this experiment than Compound A”. Also, the “XRPD form after suspension” value in data set [4] (about 3 mg Crystal Form A + 3 mg Crystal Form B in saturated Acetone solution, 25° C. for 1 week) is recorded as “Crystal Form A”; in data set [4] (about 3 mg Crystal Form A + 3 mg Crystal Form B in saturated Acetone solution, 50° C. for 1 week), “Crystal Form A”; in data set [4] (about 3 mg Crystal Form A + 3 mg Crystal Form B in saturated Acetonitrile solution, 25° C. for 1 week) it was “Crystal Form A”; in data set [4] (about 3 mg Crystal Form A + 3 mg Crystal Form B in saturated Acetonitrile solution, 50° C. for 1 week) it was “Crystal Form A”; in data set [4] (about 3 mg Crystal Form A + 3 mg Crystal Form B in saturated EtOH solution, 25° C. for 1 week), “Crystal Form A”; in data set [4] (about 3 mg Crystal Form A + 3 mg Crystal Form B in saturated EtOH solution, 50° C. for 1 week) it was “Crystal Form A”. Moreover, the “XRPD form after suspension” value is given as “Crystal Form A” in data set [4] (about 3 mg Crystal Form A + 3 mg Crystal Form B in saturated THF/Heptane (1/1, v/v) solution, 25° C. for 1 week) and “Crystal Form A” in data set [4] (about 3 mg Crystal Form A + 3 mg Crystal Form B in saturated THF/Heptane (1/1, v/v) solution, 50° C. for 1 week).

Source of the values: US12668599B2, “Heterobifunctional compounds and methods of treating disease” (Halda Therapeutics OpCo, Inc., priority 2023, dated 2026).
